10 compounds from ChEMBL document CHEMBL3611970, “Synthesis and evaluation of isatin-β-thiosemicarbazones as novel agents against antibiotic-resistant Gram-positive bacterial species” (2015) can be followed below.

≈ marks a conversion by molar mass, not a printed value.

Common to all, as to format: functional
One assay deals with Bacillus spizizenii. In words: Antimicrobial activity against Bacillus subtilis ATCC 6633 after 16 hrs by broth microdilution method. To be noted: ATCC 6633, 16 h. In general terms: In broth dilution the organism is exposed to a series of concentrations in liquid medium.
The test system of assay [1] is Staphylococcus aureus. In words: Antimicrobial activity against Staphylococcus aureus ATCC 6538 after 16 hrs by broth microdilution method. To be noted: ATCC 6538, 16 h.
The subject of assay [2] is Staphylococcus aureus. In words: Antimicrobial activity against methicillin-resistant Staphylococcus aureus Chaoyang clinical isolate after 16 hrs by broth microdilution method.
Assay [3] deals with Staphylococcus aureus. In words: Antimicrobial activity against methicillin-resistant Staphylococcus aureus 309-8 clinical isolate after 16 hrs by broth microdilution method. To be noted: 309-8, 16 h.
In assay [4] the test system is Staphylococcus aureus. In words: Antimicrobial activity against methicillin-resistant Staphylococcus aureus 309-4 clinical isolate after 16 hrs by broth microdilution method. The note with it: 309-4, 16 h.
Assay [5] relates to Staphylococcus aureus. In words: Antimicrobial activity against methicillin-resistant Staphylococcus aureus 309-6 clinical isolate after 16 hrs by broth microdilution method. The note with it: 309-6, 16 h.
Assay [6] relates to Staphylococcus aureus. In words: Antimicrobial activity against methicillin-resistant Staphylococcus aureus 309-7 clinical isolate after 16 hrs by broth microdilution method. The note with it: 309-7, 16 h.
Assay [7] deals with Staphylococcus aureus. The assay is described as follows: Antimicrobial activity against methicillin-resistant Staphylococcus aureus 309-3 clinical isolate after 16 hrs by broth microdilution method. To be noted: 309-3, 16 h.
The subject of assay [8] is Staphylococcus aureus. In words: Antimicrobial activity against methicillin-resistant Staphylococcus aureus 6281 clinical isolate after 16 hrs by broth microdilution method. The note with it: Staphylococcus aureus, 6281, 16 h.
Assay [9] concerns Staphylococcus aureus. The assay is described as follows: Antimicrobial activity against methicillin-resistant Staphylococcus aureus 309-1 clinical isolate after 16 hrs by broth microdilution method. The note with it: 309-1, 16 h.
The next assay concerns Enterococcus faecalis. In words: Antimicrobial activity against Enterococcus faecalis VRE-309 after 16 hrs by broth microdilution method. The note with it: VRE-309, 16 h.
Assay [10] has as its system Staphylococcus aureus. In words: Antimicrobial activity against methicillin-resistant Staphylococcus aureus 8-24 clinical isolate after 16 hrs by broth microdilution method. To be noted: 8-24, 16 h.
A further assay relates to Klebsiella pneumoniae. The assay is described as follows: Antimicrobial activity against Klebsiella pneumoniae KP-249 clinical isolate after 16 hrs by broth microdilution method. The note with it: KP-249, 16 h.
The test system of assay [11] is Staphylococcus aureus. In words: Antimicrobial activity against methicillin-resistant Staphylococcus aureus 8-21 clinical isolate after 16 hrs by broth microdilution method. The note with it: 8-21, 16 h.
Another assay deals with Pseudomonas aeruginosa. In words: Antimicrobial activity against Pseudomonas aeruginosa PAO1 after 16 hrs by broth microdilution method. To be noted: PAO1, 16 h.
Assay [12] concerns Staphylococcus aureus. The assay is described as follows: Antimicrobial activity against methicillin-resistant Staphylococcus aureus 6-42 clinical isolate after 16 hrs by broth microdilution method. To be noted: 6-42, 16 h.

In general, MIC refers to the least concentration at which growth counts as inhibited. A low value points to a more susceptible organism. For the compound `O=C1Nc2ccccc2/C1=N/NC(=S)Nc1ccccc1`, the figures for the MIC in the assay on Bacillus spizizenii, with Staphylococcus aureus [1] and in the assay on Staphylococcus aureus [2] were 1.56 µg/mL (≈ 5.26 µM), 3.12 µg/mL (≈ 10.5 µM) and 3.12 µg/mL (≈ 10.5 µM), respectively.

As for `O=C1Nc2ccccc2/C1=N/NC(=S)Nc1ccc(F)cc1`, the MIC in the assay with Bacillus spizizenii was determined as 1.56 µg/mL (≈ 4.96 µM); in the assay with Staphylococcus aureus [1], 6.25 µg/mL (≈ 19.9 µM); with Staphylococcus aureus [2], 3.12 µg/mL (≈ 9.93 µM).

As to `O=C1Nc2ccc(Br)cc2/C1=N/NC(=S)Nc1ccccc1`, the MIC in the assay with Bacillus spizizenii is at most 0.78 µg/mL; in the assay with Staphylococcus aureus [1] it was 6.25 µg/mL (≈ 16.7 µM); with Staphylococcus aureus [2] it was 6.25 µg/mL (≈ 16.7 µM).

Consider `O=C1Nc2ccc([N+](=O)[O-])cc2/C1=N/NC(=S)Nc1ccc(F)cc1`, for which the MIC in the assay on Bacillus spizizenii turned out to be 25 µg/mL (≈ 69.6 µM); against Staphylococcus aureus [1], 6.25 µg/mL (≈ 17.4 µM); in the assay on Staphylococcus aureus [2] it was 12.5 µg/mL (≈ 34.8 µM).

Take `O=C1Nc2ccc(F)cc2/C1=N/NC(=S)Nc1ccc(F)cc1`: the MIC against Bacillus spizizenii, against Staphylococcus aureus [1] and in the assay with Staphylococcus aureus [2] was 25 µg/mL (≈ 75.2 µM) throughout.

Consider `O=C1Nc2c(F)cccc2/C1=N/NC(=S)Nc1ccccc1`, for which the MIC against Bacillus spizizenii is at most 0.78 µg/mL; in the assay with Staphylococcus aureus [1], 3.12 µg/mL (≈ 9.93 µM); in the assay with Staphylococcus aureus [2], 1.56 µg/mL (≈ 4.96 µM).

On to `O=C1Nc2ccc(Cl)cc2/C1=N/NC(=S)Nc1ccc(F)cc1`, for which the minimal inhibitory concentration (MIC) in the assay with Bacillus spizizenii was found to be 6.25 µg/mL (≈ 17.9 µM); against Staphylococcus aureus [1], 12.5 µg/mL (≈ 35.8 µM); against Staphylococcus aureus [2], 3.12 µg/mL (≈ 8.95 µM).

`O=C1Nc2c(Br)cc([N+](=O)[O-])cc2/C1=N/NC(=S)Nc1ccc(F)cc1`: the MIC was at most 0.78 µg/mL against Bacillus spizizenii, 1.56 µg/mL (≈ 3.56 µM) in the assay on Staphylococcus aureus [1] and 3.12 µg/mL (≈ 7.12 µM) in the assay on Staphylococcus aureus [2].

With `O=C1Nc2c(Br)cc(Br)cc2/C1=N/NC(=S)Nc1ccc(F)cc1`, the MIC against Bacillus spizizenii worked out at 1.56 µg/mL (≈ 3.3 µM); against Staphylococcus aureus [1] it was 12.5 µg/mL (≈ 26.5 µM); against Staphylococcus aureus [2], 6.25 µg/mL (≈ 13.2 µM).

As for `O=C1Nc2c(F)cccc2/C1=N/NC(=S)Nc1cccc(F)c1`, the MIC in the assay with Staphylococcus aureus [3] was 0.78 µg/mL (≈ 2.35 µM); in the assay with Staphylococcus aureus [4], 0.39 µg/mL (≈ 1.17 µM); against Bacillus spizizenii, at most 0.78 µg/mL; against Staphylococcus aureus [5], 1.56 µg/mL (≈ 4.69 µM); against Staphylococcus aureus [6], 0.39 µg/mL (≈ 1.17 µM); with Staphylococcus aureus [7], 0.78 µg/mL (≈ 2.35 µM). For the same compound, the minimum inhibitory concentration (MIC) is 1.56 µg/mL (≈ 4.69 µM) in the assay on Staphylococcus aureus [8]; 0.78 µg/mL (≈ 2.35 µM) with Staphylococcus aureus [9]; 1.56 µg/mL (≈ 4.69 µM) against Enterococcus faecalis; 0.78 µg/mL (≈ 2.35 µM) against Staphylococcus aureus [10]; above 100 µg/mL in the assay on Klebsiella pneumoniae; 0.78 µg/mL (≈ 2.35 µM) in the assay on Staphylococcus aureus [11]. The MIC in the assay with Staphylococcus aureus [1] is 0.78 µg/mL (≈ 2.35 µM); in the assay on Staphylococcus aureus [2] it was 0.39 µg/mL (≈ 1.17 µM); in the assay with Pseudomonas aeruginosa it was above 100 µg/mL; in the assay with Staphylococcus aureus [12] it was 0.39 µg/mL (≈ 1.17 µM).
